How the values were obtained:
[1] = biological target: CDK2/Cyclin E1 (Homo sapiens (Human), UniProt P24941); test: Caliper LabChip EZ Reader mobility shift assay; type: biochemical; conditions: 2.5 nM CDK2/Cyclin E1 (14-475), 100 μM ATP, 1.5 μM fluorescent peptide; read-out: Caliper Assay (CDK2/CCNE1): IC50
Protocol: Inhibition of CDK2/Cyclin E1 activity in the presence of compounds of the present disclosure was evaluated using a Caliper LabChip® EZ Reader mobility shift assay. In the assay, activated CDK2/Cyclin E1 catalyzes the phosphorylation of a fluorescently tagged peptide 5-FAM-QSPKKG-CONH2 (PerkinElmer, FL Peptide 18) which induces a difference in capillary electrophoresis mobility. The peptide substrate and product were measured, and the conversion ratio was used to determine the inhibition (as % activity and IC50 values) of CDK2/Cyclin E1. Reactions contained 50 mM HEPES pH 7.5, 10 mM MgCl2, 1 mM EDTA, 2 mM DTT, 0.01% Brij35, 0.5 mg/mL BSA, 0.1% DMSO, 2.5 nM CDK2/Cyclin E1 (14-475), 100 μM ATP, and 1.5 μM fluorescent peptide substrate.
Dose titrations of inhibitors in 100% DMSO were combined with 3.25 nM CDK2/Cyclin E1 (14-475) and 130 μM of ATP in reaction buffer. The mixtures were incubated for 30 minutes before the addition of fluorescent peptide substrate to initiate the kinase reaction. The final conditions were 2.5 nM CDK2/Cyclin E1 (14-475), 100 μM ATP, and 1.5 μM fluorescent peptide. The reactions were stopped after 100 minutes with the addition of EDTA (6 mM final EDTA concentration). The stopped reactions were analyzed on a Caliper LabChip® EZ Reader II. The conversion ratios were normalized to yield % activity, plotted against compound concentration, and fit to a four-parameter equation to determine the IC50 for each compound.

[2] = tested on: Kuramochi cells labeled with mApple-H2B; test: IncuCyte cell proliferation assay; type: cell-based; conditions: Kuramochi RB-WT, cell count 0 to 72 hours; method calls it GI50
Protocol: IncuCyte® assay was used to measure the effect of disclosed compounds on cell proliferation. Fluorescent microscopy images of cells were taken immediately after compound treatment and 72 hours later. Image analysis software was used to obtain cell counts as a function of compound concentration. Kuramochi cells labeled with mApple-H2B were seeded on 384-well assay-ready plates. Plates were placed in an IncuCyte® (Sartorius) and scanned at 0 and 72 hours. IncuCyte® software was used to count the number of fluorescent nuclei in each well. The fold change in cell count from 0 to 72 hours in wells treated with increasing compounds concentrations (10 pts, 1/2 log dilution, 20 μM top concentration) was normalized to DMSO control wells. The normalized cell counts were fit with dose response curves and a GI50 was calculated.

IC50 [1] | SMILES | IC50 [2]
0.1 to 1 µM | C[C@@H](OCC1(CO)CC=CCC1)[C@H](NC(=O)[C@@H]1CN(c2ncnc3ncsc23)CC12CN(C(=O)[C@H]1CC1(C)C)C2)C(=O)N1CC2(CCOCC2)C1 (stereo partly drawn) [Compound I-37, (8S)-2-((S)-2,2-dimethylcyclopropane-1-carbonyl)-N-((2S,3R)-3-((1-(hydroxymethyl)cyclohex-3-en-1-yl)methoxy)-1-oxo-1-(7-oxa-2-azaspiro[3.5]nonan-2-yl)butan-2-yl)-6-(thiazolo[4,5-d]pyrimidin-7-yl)-2,6-diazaspiro[3.4]octane-8-carboxamide] | > 20 µM
0.01 to 0.1 µM | C[C@@H](OCC12CCC(CC1)OC2)[C@H](NC(=O)[C@@H]1CN(c2ncnc3ncsc23)CC12CN(C(=O)[C@H]1CC1(C)C)C2)C(=O)N1CCC(OC(F)(F)F)CC1 [Compound I-29, (S)-N-((2S,3R)-3-((2-oxabicyclo[2.2.2]octan-4-yl)methoxy)-1-oxo-1-(4-(trifluoromethoxy)piperidin-1-yl)butan-2-yl)-2-((S)-2,2-dimethylcyclopropane-1-carbonyl)-6-(thiazolo[4,5-d]pyrimidin-7-yl)-2,6-diazaspiro[3.4]octane-8-carboxamide] | 5 to 20 µM
0.01 to 0.1 µM | C[C@@H](OCC1(CO)CC=CCC1)[C@H](NC(=O)[C@@H]1CN(c2ncnc3ncsc23)CC12CN(C(=O)[C@H]1CC1(C)C)C2)C(=O)N1CCC(C(F)(F)F)CC1 (stereo partly drawn) [Compound I-36, (8S)-2-((S)-2,2-dimethylcyclopropane-1-carbonyl)-N-((2S,3R)-3-((1-(hydroxymethyl)cyclohex-3-en-1-yl)methoxy)-1-oxo-1-(4-(trifluoromethyl)piperidin-1-yl)butan-2-yl)-6-(thiazolo[4,5-d]pyrimidin-7-yl)-2,6-diazaspiro[3.4]octane-8-carboxamide] | > 20 µM
0.1 to 1 µM | CC(OCC12CCC(CC1)OC2)[C@H](NC(=O)[C@@H]1CN(c2ncnc3ncsc23)CC12CN(C(=O)[C@H]1CC1(C)C)C2)C(=O)N1CC2(CCOCC2)C1 (stereo partly drawn) [Compound I-25, (S)-N-((2S,3R)-3-((2-oxabicyclo[2.2.2]octan-4-yl)methoxy)-1-oxo-1-(7-oxa-2-azaspiro[3.5]nonan-2-yl)butan-2-yl)-2-((S)-2,2-dimethylcyclopropane-1-carbonyl)-6-(thiazolo[4,5-d]pyrimidin-7-yl)-2,6-diazaspiro[3.4]octane-8-carboxamide] | > 20 µM
0.01 to 0.1 µM | C[C@@H](OCC12CCC(CC1)OC2)C(NC(=O)[C@@H]1CN(c2ncnc3ncsc23)CC12CN(C(=O)[C@H]1CC1(C)C)C2)C(=O)N1CCC(C(F)(F)F)CC1 (stereo partly drawn) [Compound I-30, (S)-N-((2S,3R)-3-((2-oxabicyclo[2.2.2]octan-4-yl)methoxy)-1-oxo-1-(4-(trifluoromethyl)piperidin-1-yl)butan-2-yl)-2-((S)-2,2-dimethylcyclopropane-1-carbonyl)-6-(thiazolo[4,5-d]pyrimidin-7-yl)-2,6-diazaspiro[3.4]octane-8-carboxamide] | 0.5 to 5 µM
> 10 µM | C[C@@H](OCC12CCC(CC1)OC2)[C@H](NC(=O)[C@@H]1CN(C(=O)c2cncs2)CC12CN(c1cc[nH]n1)C2)C(C)(C)O [Compound I-31, (S)-N-((3S,4R)-4-(2-oxabicyclo[2.2.2]octan-4-ylmethoxy)-2-hydroxy-2-methylpentan-3-yl)-2-(1H-pyrazol-3-yl)-6-(thiazole-5-carbonyl)-2,6-diazaspiro[3.4]octane-8-carboxamide] | –

The remaining lines, values behind:

SMILES | IC50 [1] | IC50 [2]
C[C@@H](OCC1CCC(F)(F)CC1)[C@H](NC(=O)[C@@H]1CN(C(=O)c2cncs2)CC12CN(c1cc[nH]n1)C2)C(C)(C)O [Compound I-6, (S)-N-((3S,4R)-4-((4,4-difluorocyclohexyl)methoxy)-2-hydroxy-2-methylpentan-3-yl)-2-(1H-pyrazol-3-yl)-6-(thiazole-5-carbonyl)-2,6-diazaspiro[3.4]octane-8-carboxamide] | > 10 µM | > 20 µM
C[C@@H](OCC1CCCCC1)[C@H](NC(=O)[C@@H]1CN(c2nccc3ncsc23)CC12CN(C(=O)[C@H]1CC1(C)C)C2)C(=O)N1CCCCC1 [Compound I-15, (S)-N-((2S,3R)-3-(cyclohexylmethoxy)-1-oxo-1-(piperidin-1-yl)butan-2-yl)-2-((S)-2,2-dimethylcyclopropanecarbonyl)-6-(thiazolo[5,4-c]pyridin-4-yl)-2,6-diazaspiro[3.4]octane-8-carboxamide] | 0.1 to 1 µM | 5 to 20 µM
C[C@@H](OCC12CCC(CC1)OC2)[C@H](NC(=O)[C@@H]1CN(c2nccc3ncsc23)CC12CN(C(=O)[C@H]1CC1(C)C)C2)C(=O)N(C)C [Compound I-23, (S)-N-((2S,3R)-3-(2-oxabicyclo[2.2.2]octan-4-ylmethoxy)-1-(dimethylamino)-1-oxobutan-2-yl)-2-((S)-2,2-dimethylcyclopropanecarbonyl)-6-(thiazolo[5,4-c]pyridin-4-yl)-2,6-diazaspiro[3.4]octane-8-carboxamide] | 1 to 10 µM | > 20 µM
C[C@@H](OCC12CCC(CC1)OC2)C(NC(=O)[C@@H]1CN(c2cccc3ncsc23)CC12CN(C(=O)[C@H]1CC1(C)C)C2)C(C)(C)O (stereo partly drawn) [Compound I-16, (S)-N-((3S,4R)-4-((2-oxabicyclo[2.2.2]octan-4-yl)methoxy)-2-hydroxy-2-methylpentan-3-yl)-6-(benzo[d]thiazol-7-yl)-2-((S)-2,2-dimethylcyclopropane-1-carbonyl)-2,6-diazaspiro[3.4]octane-8-carboxamide] | > 10 µM | –
C[C@@H](OCC1CCCCC1)[C@H](NC(=O)[C@@H]1CN(c2cccc3[nH]ncc23)CC12CN(C(=O)[C@H]1CC1(C)C)C2)C(=O)N1CCCCC1 [Compound I-13, (S)-N-((2S,3R)-3-(cyclohexylmethoxy)-1-oxo-1-(piperidin-1-yl)butan-2-yl)-2-((S)-2,2-dimethylcyclopropanecarbonyl)-6-(1H-indazol-4-yl)-2,6-diazaspiro[3.4]octane-8-carboxamide] | 1 to 10 µM | 5 to 20 µM
COC[C@H]1CCCN(C(=O)C(NC(=O)[C@@H]2CN(c3nc(C(F)(F)F)cs3)CC23CN(C(=O)[C@H]2CC2(C)C)C3)[C@@H](C)OCC23CCC(CC2)OC3)C1 (stereo in doubt) [Compound I-17, (S)-N-((2S,3R)-3-(2-oxabicyclo[2.2.2]octan-4-ylmethoxy)-1-((S)-3-(methoxymethyl)piperidin-1-yl)-1-oxobutan-2-yl)-2-((S)-2,2-dimethylcyclopropanecarbonyl)-6-(4-(trifluoromethyl)thiazol-2-yl)-2,6-diazaspiro[3.4]octane-8-carboxamide] | > 10 µM | > 20 µM
COC[C@H]1CCCN(C(=O)[C@@H](NC(=O)[C@@H]2CN(c3n[nH]c4ncccc34)CC23CN(C(=O)[C@H]2CC2(C)C)C3)[C@@H](C)OCC23CCC(CC2)OC3)C1 [Compound I-24, (S)-N-((2S,3R)-3-(2-oxabicyclo[2.2.2]octan-4-ylmethoxy)-1-((S)-3-(methoxymethyl)piperidin-1-yl)-1-oxobutan-2-yl)-2-((S)-2,2-dimethylcyclopropanecarbonyl)-6-(1H-pyrazolo[3,4-b]pyridin-3-yl)-2,6-diazaspiro[3.4]octane-8-carboxamide] | > 10 µM | –
